Results taken from patent US9718804B2, “GSK-3 inhibitors” (BRISTOL-MYERS SQUIBB COMPANY, priority 2013, dated 2017).
Read-outs that look alike come from different tables or passages of the source.

What was measured:
GSK3β = GSK3β (Homo sapiens, UniProt P49841); test: GSK3β kinase assay (Caliper LabChip, fluoresceinated peptide substrate); format: biochemical
Method in brief: (§1)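 Eleven-point compound titrations (10 mM DMSO stocks) incubated with kinase and fluorescent peptide for 20 h at room temperature before EDTA quench. Substrate-to-product conversion measured by microfluidic mobility shift; IC50 from non-linear fitting.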

pTau = pTau assay (no method described); format: cell-based
GSK3α = GSK3α (Homo sapiens, UniProt P49840); test: GSK3α kinase assay (Caliper LabChip, fluoresceinated peptide substrate); format: biochemical
GSK3α, sequence (P49840 whole entry, species assumed): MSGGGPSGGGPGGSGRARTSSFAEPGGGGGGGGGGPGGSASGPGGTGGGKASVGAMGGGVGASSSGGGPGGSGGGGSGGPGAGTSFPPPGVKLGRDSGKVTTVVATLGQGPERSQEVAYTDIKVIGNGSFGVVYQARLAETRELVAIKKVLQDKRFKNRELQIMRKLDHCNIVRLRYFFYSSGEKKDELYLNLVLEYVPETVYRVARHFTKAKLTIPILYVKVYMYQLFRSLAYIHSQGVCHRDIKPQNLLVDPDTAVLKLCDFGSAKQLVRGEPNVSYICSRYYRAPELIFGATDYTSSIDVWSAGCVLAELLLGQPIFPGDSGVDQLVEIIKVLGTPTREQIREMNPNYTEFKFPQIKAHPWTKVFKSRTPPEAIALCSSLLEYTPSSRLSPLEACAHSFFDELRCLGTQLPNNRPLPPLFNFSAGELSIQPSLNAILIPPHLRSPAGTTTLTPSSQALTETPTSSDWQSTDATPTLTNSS
Method in brief: as §1

[1] = first value of the cell, 250 pM enzyme, 20 uM ATP, 20 hours at room temperature, read-out: GSK3β/α (nM): GSK3β IC50

GSK3β, sequence (P49841 whole entry, species assumed): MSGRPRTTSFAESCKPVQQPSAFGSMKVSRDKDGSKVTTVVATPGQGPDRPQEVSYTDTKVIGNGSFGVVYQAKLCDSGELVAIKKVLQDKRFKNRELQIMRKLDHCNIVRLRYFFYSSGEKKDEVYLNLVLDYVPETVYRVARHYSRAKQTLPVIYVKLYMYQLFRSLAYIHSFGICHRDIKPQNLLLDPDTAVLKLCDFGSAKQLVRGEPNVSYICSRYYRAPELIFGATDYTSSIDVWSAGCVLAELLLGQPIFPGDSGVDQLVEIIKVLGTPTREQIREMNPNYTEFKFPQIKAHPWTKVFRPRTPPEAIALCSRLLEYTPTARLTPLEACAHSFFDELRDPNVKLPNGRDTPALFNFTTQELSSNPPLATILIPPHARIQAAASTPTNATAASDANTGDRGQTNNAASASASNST

Structure (SMILES) | IC50 (GSK3β; [1]) [nM] | IC50 (pTau) [nM] | IC50 (GSK3α) [nM] | IC50 (GSK3β) [nM] | IC50 (GSK3α; second value of the cell, 250 pM enzyme, 20 uM ATP, 20 hours at room temperature, read-out: GSK3β/α (nM): GSK3α IC50) [nM]
CC(C)(C#N)c1ccc(Nc2cc(C(=O)Nc3cncc(-c4ccccc4F)c3)ccn2)nc1 [Example 164, 2-((5-(2-Cyanopropan-2-yl)pyridin-2-yl)amino)-N-(5-(2-fluorophenyl)pyridin-3-yl)isonicotinamide] | 4.9 | 3100 | 2.4 |  | 
O=C(Nc1cnc(Cl)cc1-c1ccccc1)c1ccnc(Nc2ccc(C(F)(F)F)cn2)c1 [Example 66, N-(6-Chloro-4-phenylpyridin-3-yl)-2-((5-(trifluoromethyl)pyridin-2-yl)amino)isonicotinamide] | 61 | 5850 | 29 |  | 
CN(C)S(=O)(=O)c1ccc(Nc2cc(C(=O)Nc3cncc(-c4ccccc4F)c3)ccn2)nc1 [Example 157, 2-((5-(N,N-Dimethylsulfamoyl)pyridin-2-yl)amino)-N-(5-(2-fluorophenyl)pyridin-3-yl)isonicotinamide] | 3.6 | 750 | 1.6 |  | 
O=C(Nc1cnccc1OCC(F)F)c1ccnc(Nc2ccc(C(F)(F)F)cn2)c1 [Example 42, N-(4-(2,2-Difluoroethoxy)pyridin-3-yl)-2-((5-(trifluoromethyl)pyridin-2-yl)amino)isonicotinamide] | 0.49 | 21 | 0.27 |  | 
O=C(Nc1cnccc1-c1ccccc1)c1ccnc(Nc2cc(C(F)(F)F)ccn2)c1 [Example 3, N-(4-Phenylpyridin-3-yl)-2-((4-(trifluoromethyl)pyridin-2-yl)amino)isonicotinamide] |  | 705 |  | 9 | 8.7
O=C(Nc1cncc(N2CCOCC2)c1)c1ccnc(Nc2ccc(C(F)(F)F)cn2)c1 [Example 121, N-(5-Morpholinopyridin-3-yl)-2-((5-(trifluoromethyl)pyridin-2-yl)amino)isonicotinamide] | 25 | 1500 | 12 |  | 
N#Cc1ccc(Nc2cc(C(=O)Nc3cncc(-c4ccccc4F)c3)ccn2)nc1 [Example 135, 2-((5-Cyanopyridin-2-yl)amino)-N-(5-(2-fluorophenyl)pyridin-3-yl)isonicotinamide] | 3 | 670 | 1.7 |  | 
CCOc1ccncc1NC(=O)c1ccnc(Nc2ccc(C)cn2)c1 [Example 14, N-(4-Ethoxypyridin-3-yl)-2-((5-methylpyridin-2-yl)amino)isonicotinamide] | 0.47 | 125 | 1.5 |  | 
CC1(c2cc(OCCO)ncc2NC(=O)c2ccnc(Nc3ccc(C(F)(F)F)cn3)c2)OCCO1 [Example 84, N-(6-(2-Hydroxyethoxy)-4-(2-methyl-1,3-dioxolan-2-yl)pyridin-3-yl)-2-((5-(trifluoromethyl)pyridin-2-yl)amino)isonicotinamide] | 9.2 | 350 | 5 |  | 
O=C(Nc1cnccc1-c1ccc(F)cc1F)c1ccnc(Nc2ccc(C(F)(F)F)cn2)c1 [Example 54, N-(4-(2,4-Difluoro-phenyl)pyridin-3-yl)-2-((5-(trifluoromethyl)pyridin-2-yl)amino)isonicotinamide] | 2.8 | 57 | 0.96 |  | 
